The assay concerns the target T1, CYP26A1 (Homo sapiens, UniProt O43174).
T1 sequence (O43174 1-497): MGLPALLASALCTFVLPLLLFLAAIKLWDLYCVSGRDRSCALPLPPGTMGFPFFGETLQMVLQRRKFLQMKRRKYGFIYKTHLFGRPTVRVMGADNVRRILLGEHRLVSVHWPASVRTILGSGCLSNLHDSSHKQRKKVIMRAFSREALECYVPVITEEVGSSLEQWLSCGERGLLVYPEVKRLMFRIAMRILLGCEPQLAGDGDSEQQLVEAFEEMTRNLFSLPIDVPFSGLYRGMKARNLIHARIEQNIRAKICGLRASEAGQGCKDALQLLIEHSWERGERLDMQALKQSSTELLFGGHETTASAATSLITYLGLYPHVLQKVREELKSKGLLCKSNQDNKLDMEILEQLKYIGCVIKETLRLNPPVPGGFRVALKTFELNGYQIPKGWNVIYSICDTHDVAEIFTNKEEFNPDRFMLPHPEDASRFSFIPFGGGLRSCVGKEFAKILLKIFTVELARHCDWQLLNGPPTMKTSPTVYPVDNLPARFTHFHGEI
The experiment in a line: spectral titration. Type of assay: binding.

Structures are written as SMILES.

A word on the Kd: it is the free concentration of one partner at which half of the binding sites on the other are occupied at equilibrium, for simple one-to-one binding. A low value points to higher affinity. For `CC1=C(/C=C/C(C)=C/C=C/C(C)=C/C(=O)O)C(C)(C)CCC1` [RA, all-trans-retinoic acid], the equilibrium dissociation constant (Kd) came out at 0.529 µM.

Values taken from paper PMC2829272 (Biochemical pharmacology, 2008).
